According to the Kinase Knowledgebase extract (Sharma et al. 2016):
Where “and” joins values, the source holds several entries; their conditions need not be identical. Equal values may be shown once.

target: PIK3CA (human) (UniProt P42336); assay: Enzyme Assay
Sequence (P42336 whole entry, looked up): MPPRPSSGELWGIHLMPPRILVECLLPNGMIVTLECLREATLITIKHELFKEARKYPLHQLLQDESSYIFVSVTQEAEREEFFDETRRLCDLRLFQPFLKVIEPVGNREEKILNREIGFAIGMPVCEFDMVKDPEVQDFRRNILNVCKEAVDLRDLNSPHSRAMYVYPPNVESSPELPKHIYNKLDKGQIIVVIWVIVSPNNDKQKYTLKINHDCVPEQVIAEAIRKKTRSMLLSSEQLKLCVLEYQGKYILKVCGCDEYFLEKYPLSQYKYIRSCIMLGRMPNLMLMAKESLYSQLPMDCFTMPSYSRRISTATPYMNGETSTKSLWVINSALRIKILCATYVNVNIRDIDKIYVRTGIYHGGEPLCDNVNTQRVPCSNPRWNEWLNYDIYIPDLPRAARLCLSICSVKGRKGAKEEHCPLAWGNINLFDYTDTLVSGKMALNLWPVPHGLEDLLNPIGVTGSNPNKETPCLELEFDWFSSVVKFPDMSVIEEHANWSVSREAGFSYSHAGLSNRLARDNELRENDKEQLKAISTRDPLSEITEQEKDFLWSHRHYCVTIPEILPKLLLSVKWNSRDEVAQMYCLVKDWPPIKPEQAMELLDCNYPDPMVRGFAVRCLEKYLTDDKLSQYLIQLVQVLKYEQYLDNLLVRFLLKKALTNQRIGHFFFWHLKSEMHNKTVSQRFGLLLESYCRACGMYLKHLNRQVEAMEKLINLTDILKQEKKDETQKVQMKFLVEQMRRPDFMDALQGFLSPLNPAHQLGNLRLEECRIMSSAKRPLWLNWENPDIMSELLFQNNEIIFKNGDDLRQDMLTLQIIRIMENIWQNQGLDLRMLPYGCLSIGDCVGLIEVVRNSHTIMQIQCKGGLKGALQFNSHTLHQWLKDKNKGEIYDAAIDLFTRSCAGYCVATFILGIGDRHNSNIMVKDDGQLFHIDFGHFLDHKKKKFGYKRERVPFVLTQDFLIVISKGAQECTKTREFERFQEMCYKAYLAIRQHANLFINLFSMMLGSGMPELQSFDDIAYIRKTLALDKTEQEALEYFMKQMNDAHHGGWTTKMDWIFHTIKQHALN

Compound	IC50
CCc1ncnc(-c2ccc(C(=O)N3CC[S+]([O-])CC3)c(F)c2)c1C#Cc1ccc(N)nc1	46 nM
CCc1ncnc(-c2ccc(C(=O)N3CCC(N4CCN(C)CC4)CC3)c(C)c2)c1C#Cc1ccc(N)nc1	307 nM
CCc1ncnc(-c2ccc(C(=O)N3CC(O)CO3)c(F)c2)c1C#Cc1ccc(N)nc1 (configuration not stated)	64 nM
CCc1ncnc(-c2ccc(C(=O)N3CCC(OC)CC3)c(Cl)c2)c1C#Cc1ccc(N)nc1	93.5 nM
CCc1ncnc(-c2ccc(Cl)c(C(=O)N(C)C)c2)c1C#Cc1ccc(N)nc1	194 nM
CCc1ncnc(-c2ccc(C(=O)N3CC[C@H](O)C3)c(Cl)c2)c1C#Cc1ccc(N)nc1	58 nM
CCc1ncnc(-c2ccc(C(=O)N3C[C@H]4C[C@@H]3CN4C)c(F)c2)c1C#Cc1ccc(N)nc1	333 nM
CCc1ncnc(-c2ccc(C(=O)N3CCN(CC4CC4)CC3)c(Cl)c2)c1C#Cc1ccc(N)nc1	228 nM
CCc1ncnc(-c2ccc(C(=O)N3CCN4CCCCC4C3)c(C)c2)c1C#Cc1ccc(N)nc1 (configuration not stated)	115 nM
CCc1ncnc(-c2ccc(C(=O)N3CCCC(O)C3)c(Cl)c2)c1C#Cc1ccc(N)nc1 (configuration not stated)	65 nM
CCc1ncnc(-c2ccc(C(=O)N3CCC(O)CC3)c(Cl)c2)c1C#Cc1ccc(N)nc1	52.9 nM
CCc1ncnc(-c2ccc(C(=O)N3CC[C@@H](N(C)C)C3)c(OC)c2)c1C#Cc1ccc(N)nc1	357 nM
CCc1ncnc(-c2ccc(C(=O)N3CCN(C(C)C)CC3)c(Cl)c2)c1C#Cc1ccc(N)nc1	246 nM
CCc1ncnc(-c2ccc(C(=O)N(C)O)c(Cl)c2)c1C#Cc1ccc(N)nc1	67.4 nM
CCNc1ccc(C#Cc2c(CC)ncnc2-c2ccc(C(=O)N3CCN(C4CCC4)CC3)c(F)c2)cn1	206 nM
CCc1ncnc(-c2ccc(C(=O)N3CC[S+]([O-])CC3)c(Cl)c2)c1C#Cc1ccc(N)nc1	63.6 nM and 64 nM
CCc1ncnc(-c2ccc(C(=O)NC3CC(N4CCC(O)CC4)C3)c(F)c2)c1C#Cc1ccc(N)nc1 (configuration not stated)	351 nM
CCc1ncnc(-c2ccc(C(=O)N(C)C)c(F)c2)c1C#Cc1ccc(C)nc1	222 nM
CCc1ncnc(-c2ccc(C(=O)N3CCCC(N(C)C)C3)c(C)c2)c1C#Cc1ccc(N)nc1 (configuration not stated)	173 nM
CCc1ncnc(-c2ccc(C(=O)N3CCC(C(F)(F)F)CC3)c(Cl)c2)c1C#Cc1ccc(N)nc1	499 nM
CCc1ncnc(-c2ccc(C(=O)N3CCC(OC)CC3)c(C)c2)c1C#Cc1ccc(N)nc1	67.8 nM
CCc1ncnc(-c2ccc(C(=O)N3CCCN(C)CC3)c(Cl)c2)c1C#Cc1ccc(N)nc1	405 nM
CCc1ncnc(-c2ccc(C(=O)N3CCN(CCN(C)C)CC3)c(Cl)c2)c1C#Cc1ccc(N)nc1	370 nM
CCc1ncnc(-c2cc(F)c(C(=O)N3CCC4(CC3)CC(=O)CO4)c(F)c2)c1C#Cc1ccc(N)nc1	144 nM
CCc1ncnc(-c2ccc(C(=O)N3CCC(N4CCC(C)CC4)C3)c(C)c2)c1C#Cc1ccc(N)nc1 (configuration not stated)	200 nM
CCc1ncnc(-c2ccc(C(=O)N3CCOC(C)(C)C3)c(F)c2)c1C#Cc1ccc(N)nc1	108 nM
Cc1ncnc(-c2ccc(Cl)c(C(=O)N3CCCCC3)c2)c1C#Cc1ccc(N)nc1	309 nM

Next, values leading:

IC50	Compound
65.6 nM	CCc1ncnc(-c2ccc(C(=O)N3CC[C@@H](O)C3)c(Cl)c2)c1C#Cc1ccc(N)nc1
77 nM	CCc1ncnc(-c2ccc(C(=O)N3CCC(C)(O)CC3)c(Cl)c2)c1C#Cc1ccc(N)nc1
136 nM	CCc1ncnc(-c2ccc(C(=O)N3CCC[C@H]3CO)c(F)c2)c1C#Cc1ccc(N)nc1
209 nM	CCc1ncnc(-c2ccc(C(=O)N3CCN(c4ccncc4)CC3)c(Cl)c2)c1C#Cc1ccc(N)nc1
65.3 nM	CCc1ncnc(-c2ccc(C(=O)N3CCCOCC3)c(Cl)c2)c1C#Cc1ccc(N)nc1
510 nM	CCc1ncnc(-c2ccc(C(=O)NC3CCCN(C)C3)c(Cl)c2)c1C#Cc1ccc(N)nc1 (configuration not stated)
82 nM	CCc1ncnc(-c2ccc(C(=O)N3CCC(OC)CC3)c(F)c2)c1C#Cc1ccc(N)nc1
90.7 nM	CCc1ncnc(-c2ccc(C(=O)N3CCN(C4CCCC4)CC3)c(C)c2)c1C#Cc1ccc(N)nc1
31.8 nM	CCc1ncnc(-c2ccc(C(=O)N(C)CCN3CCCC3=O)c(C)c2)c1C#Cc1ccc(N)nc1
110 nM	CCc1ncnc(-c2ccc(C(=O)N3CCC(C)(O)CC3)c(F)c2)c1C#Cc1ccc(N)nc1
164 nM	CCc1ncnc(-c2ccc(C(=O)N3CCNCC3)c(Cl)c2)c1C#Cc1ccc(N)nc1
101 nM	CCc1ncnc(-c2ccc(C(=O)N3CCC(C(C)(C)O)CC3)c(Cl)c2)c1C#Cc1ccc(N)nc1
374 nM	CCc1ncnc(-c2ccc(C(=O)N3CCC(C4CCN(C)CC4)CC3)c(Cl)c2)c1C#Cc1ccc(N)nc1
36.8 nM	CCc1ncnc(-c2ccc(C(=O)N3CCN(S(=O)(=O)CC)CC3)c(C)c2)c1C#Cc1ccc(N)nc1
232 nM	CCc1ncnc(-c2ccc(C(=O)N3CCC(N(C)C)CC3)c(C)c2)c1C#Cc1ccc(N)nc1
